Columns and labels:
Rattus norvegicus [1] = experiment: Anti-inflammatory activity in Rattus norvegicus (rat) assessed as inhibition of carrageenan-induced paw edema at 10 mg/kg, po measured at 2 hr post carrageenan-challenge (reference value: 5.7+/- 0.32%); format: functional
Rattus norvegicus [2] = experiment: Anti-inflammatory activity in Rattus norvegicus (rat) assessed as inhibition of carrageenan-induced paw edema at 20 mg/kg, po measured at 30 min post carrageenan-challenge (reference value: 5.1 +/- 0.29%); format: functional; settings: 0.5 h
Mus musculus [3] = experiment: Analgesic activity in Mus musculus Wistar albino (mouse) at 10 mg/kg, po after 30 min by tail-flick test (reference value: 2 +/- 0.35%); format: functional
Mus musculus [4] = experiment: Analgesic activity in Mus musculus Wistar albino (mouse) at 10 mg/kg, po after 1 hr by tail-flick test (reference value: 6 +/- 0.49%); format: functional
Rattus norvegicus [5] = experiment: Anti-inflammatory activity in Rattus norvegicus (rat) assessed as inhibition of carrageenan-induced paw edema at 10 mg/kg, po measured at 1 hr post carrageenan-challenge (reference value: 6.1 +/- 0.27%); format: functional
Rattus norvegicus [6] = experiment: Anti-inflammatory activity in Rattus norvegicus (rat) assessed as inhibition of carrageenan-induced paw edema at 10 mg/kg, po measured at 3 hr post carrageenan-challenge (reference value: 3.2 +/- 0.93%); format: functional
Rattus norvegicus [7] = experiment: Anti-inflammatory activity in Rattus norvegicus (rat) assessed as inhibition of carrageenan-induced paw edema at 20 mg/kg, po measured at 1 hr post carrageenan-challenge (reference value: 6.1 +/- 0.27%); format: functional
Mus musculus [8] = experiment: Analgesic activity in Mus musculus Wistar albino (mouse) at 20 mg/kg, po after 3 hr by tail-flick test (reference value: 4 +/- 0.91%); format: functional
Rattus norvegicus [9] = experiment: Anti-inflammatory activity in Rattus norvegicus (rat) assessed as inhibition of carrageenan-induced paw edema at 20 mg/kg, po measured at 3 hr post carrageenan-challenge (reference value: 3.2 +/- 0.93%); format: functional
Mus musculus [10] = experiment: Analgesic activity in Mus musculus Wistar albino (mouse) at 20 mg/kg, po after 30 min by tail-flick test (reference value: 2 +/- 0.35%); format: functional
Rattus norvegicus [11] = experiment: Anti-inflammatory activity in Rattus norvegicus (rat) assessed as inhibition of carrageenan-induced paw edema at 10 mg/kg, po measured at 30 min post carrageenan-challenge (reference value: 5.1 +/- 0.29%); format: functional; settings: 0.5 h
Mus musculus [12] = experiment: Analgesic activity in Mus musculus Wistar albino (mouse) at 20 mg/kg, po after 1 hr by tail-flick test (reference value: 6 +/- 0.49%); format: functional
Mus musculus [13] = experiment: Analgesic activity in Mus musculus Wistar albino (mouse) at 10 mg/kg, po after 2 hr by tail-flick test (reference value: 4 +/- 0.59%); format: functional
Rattus norvegicus [14] = experiment: Anti-inflammatory activity in Rattus norvegicus (rat) assessed as inhibition of carrageenan-induced paw edema at 20 mg/kg, po measured at 2 hr post carrageenan-challenge (reference value: 5.7+/- 0.32%); format: functional
Mus musculus [15] = experiment: Analgesic activity in Mus musculus Wistar albino (mouse) at 10 mg/kg, po after 3 hr by tail-flick test (reference value: 4 +/- 0.91%); format: functional
Mus musculus [16] = experiment: Analgesic activity in Mus musculus Wistar albino (mouse) at 20 mg/kg, po after 2 hr by tail-flick test (reference value: 4 +/- 0.59%); format: functional
Rattus norvegicus [17] = experiment: Gastrointestinal toxicity in Rattus norvegicus Wistar albino (rat) assessed as ulcer index at 20 mg/kg, ip administered QD for 3 days measured on day 4 (reference value: 0.15 +/- 0.32); format: organism-based; set-up: dose 20 mg/kg, route intraperitoneal; settings: in vivo, 72 h

| SMILES | inhibition in vivo at 10 mg/kg (Rattus norvegicus [1]) | inhibition in vivo at 20 mg/kg (Rattus norvegicus [2]) | Activity (Mus musculus [3]) | Activity (Mus musculus [4]) | inhibition in vivo at 10 mg/kg (Rattus norvegicus [5]) | inhibition in vivo at 10 mg/kg (Rattus norvegicus [6]) | inhibition in vivo at 20 mg/kg (Rattus norvegicus [7]) | Activity (Mus musculus [8]) | inhibition in vivo at 20 mg/kg (Rattus norvegicus [9]) | Activity (Mus musculus [10]) | inhibition in vivo at 10 mg/kg (Rattus norvegicus [11]) | Activity (Mus musculus [12]) | Activity (Mus musculus [13]) | inhibition in vivo at 20 mg/kg (Rattus norvegicus [14]) | Activity (Mus musculus [15]) | Activity (Mus musculus [16]) | UI (Rattus norvegicus [17]) |
| --- | --- | --- | --- | --- | --- | --- | --- | --- | --- | --- | --- | --- | --- | --- | --- | --- | --- |
| CC/C(C)=N/Nc1nc2ccccc2c(=O)n1Cc1ccccc1 | 51% | 50% | 59% | 62% | 48% | 26% | 59% | 45% | 39% | 71% | 45% | 73% | 65% | 60% | 35% | 76% | 0.53 |
| CCC(CC)=NNc1nc2ccccc2c(=O)n1Cc1ccccc1 | 56% | 59% | 63% | 69% | 53% | 30% | 68% | 50% | 41% | 74% | 49% | 79% | 72% | 70% | 41% | 81% | 0.5 |
| CCC/C(C)=N/Nc1nc2ccccc2c(=O)n1Cc1ccccc1 | 53% | 58% | 58% | 60% | 51% | 30% | 65% | 48% | 39% | 67% | 47% | 77% | 67% | 67% | 40% | 79% | 0.48 |
| O=C([O-])Cc1ccccc1Nc1c(Cl)cccc1Cl.[Na+] [DICLOFENAC SODIUM] | 39% | 45% | 37% | 43% | 38% | 33% | 52% | 39% | 42% | 46% | 32% | 55% | 45% | 60% | 33% | 62% | 1.65 |

— ChEMBL document CHEMBL3046395, “Synthesis and pharmacological investigation of novel 3-(benzyl)-2-substituted amino-3H-quinazolin-4-ones as analgesic and anti-inflammatory agents” (Med Chem Res, 2008)
